From PMC8496750, “Identification of the organic anion transporting polypeptides responsible for the hepatic uptake of the major metabolite of epyrifenacil, S‐3100‐CA, in mice” (Pharmacology Research & Perspectives, 2021)
Read-outs that look alike come from different tables or passages of the source.

What was measured:
[1] = Metabolite analysis in plasma, liver, and kidney (TLC); type: in vivo, Crl:CD1(ICR) mice; details: for concentration at 2 h / Kp at 2 h: Crl:CD1(ICR), mouse, oral; for Kp at 2 h: liver and plasma, read-out: Liver/plasma ratio of S‐3100‐CA; for Kp at 2 h / S‐3100‐CA concentration in liver: 2 h
From the text: Precoated silica gel 60 F254 chromatoplate (20 × 20 cm, 0.25‐ or 0.5‐mm layer thickness, Merck KGaA) was used for two‐dimensional thin layer chromatography (2D‐TLC) analysis. The solvent systems were ethyl formate/formic acid (95/5, v/v) for the first dimension, and ethyl acetate/acetic acid (95/5, v/v) for the second dimension. The radioactivity on the TLC plates was detected by autoradiography using an imaging plate processed with a fluoro‐image analyzer (FLA‐9500, GE Healthcare). The identity of the metabolites was confirmed by co‐chromatography in comparison with authentic metabolite standards.
Three mice per sex at 8 weeks old were given a single oral dose of [^14C]epyrifenacil at 1 mg/kg with or without co‐administration of OATP inhibitors. […] At 2 h after administration of [^14C]epyifenacil, the animals were euthanized by whole blood collection from the abdominal aorta under anesthesia with isoflurane. The sampling time point was selected as the time around T max based on the result of the blood ^14C‐concentration study. Then, the liver and kidney were dissected out, and the amount of ^14C was measured. Aliquots of heparinized blood samples were separated into blood cells and plasma by centrifugation at 2000g for 10 min at 4°C. The total weight of the liver and kidney was determined for each animal. Two aliquots of plasma and tissue samples (approximately 0.05–0.1 g) were weighed in a glass vial, and the radioactivity was measured.
Approximately 0.3 g of liver, kidney, and plasma samples were pooled, respectively, for each dose and gender to obtain samples for analysis. Pooled liver, kidney, and plasma (ca. 1 g each) samples were homogenized with an approximately 3‐fold volume (v/w) of methanol using the mixer mill MM400 (5 min, 25 cycles/second, Retsch GmbH) and centrifuged (10 000g, 5 min, 4°C) to separate the supernatants from the residues. The extraction was repeated one additional time. The supernatants obtained were pooled and labeled liver, kidney, and plasma extracts. These samples were concentrated and then subjected to TLC analysis. For calculation of extraction efficacy, the post‐extraction solids (PESs) from the tissues and plasma extracts were sampled in low potassium glass vials. PESs were solubilized with 3 M potassium hydroxide solution (approximately 1 ml), then bleached with 30% hydrogen peroxide solution, and finally mixed with 10 ml of Hionic‐Fluor to measure the radioactivity.

human OATP1B3 = biological target: T1, human OATP1B3 (Homo sapiens, UniProt Q9NPD5); assay: Inhibition of S‐3100‐CA uptake by OATP inhibitors, human OATP1B3; type: in vitro ADME; details: inhibitor at 100 μM
T1 construct: expressed in transfected cells; host or cells: 293FT cells
T1 sequence (Q9NPD5 1-702): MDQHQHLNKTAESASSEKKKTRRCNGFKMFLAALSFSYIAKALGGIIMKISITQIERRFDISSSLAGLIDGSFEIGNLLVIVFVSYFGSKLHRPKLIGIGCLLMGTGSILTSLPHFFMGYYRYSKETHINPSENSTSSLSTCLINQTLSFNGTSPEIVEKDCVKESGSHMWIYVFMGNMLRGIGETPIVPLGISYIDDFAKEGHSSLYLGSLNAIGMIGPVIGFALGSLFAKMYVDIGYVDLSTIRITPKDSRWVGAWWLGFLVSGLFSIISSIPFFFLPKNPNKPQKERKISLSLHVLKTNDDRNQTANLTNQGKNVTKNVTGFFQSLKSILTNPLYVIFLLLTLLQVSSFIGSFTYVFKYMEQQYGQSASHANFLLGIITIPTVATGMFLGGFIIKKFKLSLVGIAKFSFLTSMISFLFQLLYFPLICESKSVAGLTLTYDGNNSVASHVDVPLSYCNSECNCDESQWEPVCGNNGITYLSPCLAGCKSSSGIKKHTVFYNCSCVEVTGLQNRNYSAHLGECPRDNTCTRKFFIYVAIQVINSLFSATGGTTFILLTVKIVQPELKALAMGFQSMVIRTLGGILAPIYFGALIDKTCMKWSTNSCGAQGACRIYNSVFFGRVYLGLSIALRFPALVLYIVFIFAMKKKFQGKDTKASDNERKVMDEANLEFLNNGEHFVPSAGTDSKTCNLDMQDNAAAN
Method: 293FT cells were purchased from Thermo Fisher Scientific, Inc.. The cells were grown in Dulbecco's modified Eagle medium (supplemented with 4.5 g/L glucose and 2 mM L‐glutamine) at 37°C, 5% CO2, and 95% humidity. The cells were passaged 3 times per week by harvesting cells using trypsin and plating at a density of 1.0 × 10^4 cells/cm^2 in a 10 cm cell culture plate for maintenance culture. The 293FT cells were detached using trypsin and re‐seeded at a density of 2.5 × 10^4 cells/cm^2 in BioCoat™ Collagen I 6‐well plates (Corning Inc.) for transfection and then treated with 1.2 μg of plasmid vector and 3.2 μl of Lipofectamine™ 2000 Transfection Reagent (Thermo Fisher Scientific, Inc.) according to the manufacturer's instructions. After a 3‐h treatment, the transfection medium was replaced with a fresh cell culture medium and incubated at 37°C with 95% humidity and 5% CO2 until ready for the assay.
Transport experiments were conducted approximately 24 h post‐transfection. […] From the lysate, 1.0 ml was transferred to a vial containing 10 ml of Emulsifier Scintillator Plus to measure the radioactivity in the LSC. The protein concentration of the cell lysate was also measured using a Pierce™ BCA Protein Assay Kit (Thermo Fisher Scientific, Inc.), which was used to normalize, according to the cell number, the radioactivity in the cell lysate extract. […]

Which concentration at 2 h ([1]; kidney, with rifampicin (OATP inhibitor) 200 mg/kg p.o., Female, 2 h after [^14C]Epyrifenacil 1 mg/kg p.o. + Rifampicin 200 mg/kg p.o., read-out: Metabolite concentration, Kidney) does the source give for `Cn1c(C(F)(F)F)cc(=O)n(-c2cc(Oc3cccnc3OCC(=O)O)c(Cl)cc2F)c1=O` [S‐3100‐CA] here?
The concentration at 2 h was 50 ng/g.

And the concentration at 2 h ([1]; kidney, with rifampicin (OATP inhibitor) 200 mg/kg p.o., Male, 2 h after [^14C]Epyrifenacil 1 mg/kg p.o. + Rifampicin 200 mg/kg p.o., read-out: Metabolite concentration, Kidney)?
The concentration at 2 h was 73 ng/g.

What about the concentration at 2 h ([1]; kidney, Female, 2 h after [^14C]Epyrifenacil 1 mg/kg p.o., read-out: Metabolite concentration, Kidney) of the same compound?
The concentration at 2 h was 96 ng/g.

What about the concentration at 2 h ([1]; kidney, Male, 2 h after [^14C]Epyrifenacil 1 mg/kg p.o., read-out: Metabolite concentration, Kidney) of the same compound?
The concentration at 2 h was 55 ng/g.

What about the concentration at 2 h ([1]; liver, with rifampicin (OATP inhibitor) 200 mg/kg p.o., Female, 2 h after [^14C]Epyrifenacil 1 mg/kg p.o. + Rifampicin 200 mg/kg p.o., read-out: Metabolite concentration, Liver) of the same compound?
Its concentration at 2 h is 660 ng/g.

And the concentration at 2 h ([1]; liver, with rifampicin (OATP inhibitor) 200 mg/kg p.o., Male, 2 h after [^14C]Epyrifenacil 1 mg/kg p.o. + Rifampicin 200 mg/kg p.o., read-out: Metabolite concentration, Liver)?
Its concentration at 2 h is 1370 ng/g.

What about the concentration at 2 h ([1]; liver, Female, 2 h after [^14C]Epyrifenacil 1 mg/kg p.o., read-out: Metabolite concentration, Liver) of the same compound?
The concentration at 2 h was 3520 ng/g.

And the concentration at 2 h ([1]; liver, Male, 2 h after [^14C]Epyrifenacil 1 mg/kg p.o., read-out: Metabolite concentration, Liver)?
Its concentration at 2 h is 4740 ng/g.

And the concentration at 2 h ([1]; plasma, with rifampicin (OATP inhibitor) 200 mg/kg p.o., Female, 2 h after [^14C]Epyrifenacil 1 mg/kg p.o. + Rifampicin 200 mg/kg p.o., read-out: Metabolite concentration, Plasma)?
Its concentration at 2 h is 143 ng/g.

And the concentration at 2 h ([1]; plasma, with rifampicin (OATP inhibitor) 200 mg/kg p.o., Male, 2 h after [^14C]Epyrifenacil 1 mg/kg p.o. + Rifampicin 200 mg/kg p.o., read-out: Metabolite concentration, Plasma)?
Its concentration at 2 h is 76 ng/g.

And the concentration at 2 h ([1]; plasma, Female, 2 h after [^14C]Epyrifenacil 1 mg/kg p.o., read-out: Metabolite concentration, Plasma)?
Its concentration at 2 h is 68 ng/g.

What about the concentration at 2 h ([1]; plasma, Male, 2 h after [^14C]Epyrifenacil 1 mg/kg p.o., pooled samples, read-out: Metabolite concentration, Plasma) of the same compound?
The concentration at 2 h was 54 ng/g.

What about the “Share of ^14C in liver” value ([1]; all dose groups) of the same compound?
The value was “over 70%”.

What about the Kp at 2 h ([1]; female, 1 mg/kg, females, epyrifenacil 1 mg/kg p.o. without inhibitors) of the same compound?
The Kp at 2 h was 52.

What about the Kp at 2 h ([1]; female, females, DGX co‐administrated (oral or intraperitoneal)) of the same compound?
Its Kp at 2 h is 50 to 56.

What about the Kp at 2 h ([1]; female, females, RIF co‐administrated) of the same compound?
Its Kp at 2 h is 5.

And the “S‐3100‐CA concentration in liver” value ([1]; females, RIF co‐administrated)?
The value was 0.660 ppm.

What about the Kp at 2 h ([1]; male, 1 mg/kg, males, epyrifenacil 1 mg/kg p.o. without inhibitors) of the same compound?
Its Kp at 2 h is 88.

What about the Kp at 2 h ([1]; male, males, DGX co‐administrated (oral or intraperitoneal)) of the same compound?
The Kp at 2 h was 89 to 139.

And the Kp at 2 h ([1]; male, males, RIF co‐administrated)?
The Kp at 2 h was 18.

And the “S‐3100‐CA concentration in liver” value ([1]; males, RIF co‐administrated)?
Its value is 1.371 ppm.

With `CO[C@H]1/C=C/O[C@@]2(C)Oc3c(C)c(O)c4c(O)c(c(/C=N/N5CCN(C)CC5)c(O)c4c3C2=O)NC(=O)/C(C)=C\C=C\[C@H](C)[C@H](O)[C@@H](C)[C@@H](O)[C@@H](C)[C@H](OC(C)=O)[C@@H]1C` [RIF, Rifampicin] as the compound, how does the “Uptake of S‐3100‐CA, % of that by vehicle‐treated cells” value (human OATP1B3) read?
Its value is “less than 40%”.
